Experimental data from US6458837B1, “Lipophilic diesters of chelating agents” (D-Pharm Ltd., priority 1997, dated 2002).
Marks after values point to notes of the source that are not given here.

Assays:
[1] = test system: cultured neuronal cells of rat hippocampus; assay: Intracellular Ca++ concentration, Fluo-3/AM fluorescence; format: cell-based; settings: 1 mM in 9 sec. pulse applied onto cultured hippocampal neurons
[2] = Water/octanol distribution of Ca++ ions; format: physicochemical; settings: 15 ml octanol / 15 ml saline pH 6.5; CaCl2 2×10^−3 M/L
Experimental: (§1) The hydrophilic/hydrophobic system used in this set of experiments consisted of 15 ml octanol and 15 ml saline pH=6.5. DP-BAPTA 99 was dissolved in the octanol solution before this phase was mixed with the saline. The DP-BAPTA concentration in the different experiments varied from 2.1×10^−6 to 5.5×10^−4 M/L in the experiments with Ca^2+ and from 5.4×10^−6 to 1.4×10^−3 M/L in the experiments with either Zn^2+ or Fe^2+, as indicated for each point in FIGS. 1A-C. The corresponding metal ions were added in the aqueous solution as chlorides at the following concentrations: FeCl2 2×10^−3 M/L, ZnCl2 10^−4 M/L, CaCl2 2×10^−3 M/L.
(§2) The octanol and buffer phases were mixed and vortexed for 1 hr at room temperature, followed by centrifugation at 4000 rpm, 10 min in order to separate the mixture to the two phases.
(§3) Different analytical procedures were employed for water and octanol samples: i) Water samples were analyzed versus ICP standards from Merk. Ca and Zn were determined in tested solutions by inductively coupled plasma atomic emission spectrometry. An ICP-AES, model “Spectroflame Modula E” from Spectro, Kleve, Germany was used, with a standard cross flow nebulizer and fixed EOP torch. The power level was 1.2 kW, coolant flow—15 l/min, auxilliary flow 0.5 l/min and nebulizer flow—0.5 l/min. ii) Octanol samples, 2-ml each, in a glass tube, were transferred to a heating block. […]

[3] = Octanol-saline partition coefficient (lipophilicity); format: physicochemical; settings: for LogPc, octanol-saline partition coefficient, M = Ca++: calcium salt (BAPTA: dicalcium salt); for LogPc, octanol-saline partition coefficient, M = Ca++ / LogPc, octanol-saline partition coefficient, M = Na+: octanol/physiological saline, 26° C.; for LogPc, octanol-saline partition coefficient, M = Na+: sodium salt (BAPTA: tetrasodium salt)
Experimental: The lipophilicity values of several BAPTA diesters salts of the invention were studied by comparing the solubility of these compounds in organic versus aqueous solutions. Octanol and physiological saline were used, respectively, as the organic and aqueous solutions. The partition coefficient (Pc), i.e the distribution ratio between the organic and the aqueous phases were determined for several specific BAPTA diesters salts of the general formula I: [drawing 6]

Mongolian gerbils [4] = settings: 5 μg/kg i.p. single dose immediately after 10 minutes ischemia; three days after ischemia
Mongolian gerbils [5] = settings: for neuroprotective activity, sodium salt compared with calcium salt: global forebrain ischemia model; for neuronal damage (serum NSE activity 24 hours after ischemia): single dose 5μg/kg i.p. at onset of reperfusion (t=0) or 3 hours after (t=3), 10 min ischemia
Experimental: (§4) Animal. Male Mongolian gerbils 60-70 g (Charles River Laboratories, USA) were used for the study.
(§5) Induction of ischemia. Anesthesia was induced in gerbils with halothane (4%) in an anesthesia chamber (30% oxygen, 70% nitrous oxide) and was maintained with 1% halohtane in 30% oxygen and 70% nitrous oxide using face masks. For ischemia induction, both common carotid arteries were isolated via a neck midline incision and temporarily occluded for 10 or 20 min, as indicated, using arterial clips. During the entire period of cerebral ischemia, when the clips were in place, anesthesia was maintained only with 30% oxygen and 70% nitrous oxide, without halothane. Rectal temperature, monitored with a rectal probe, was maintained throughout ischemia at 37-37.5° C. by using a warming lamp and heating pad. Whenever applied, the tested BAPTA diesters were administered to the animals either parenterally via i.p. or orally, at the times and dosages as indicated in each particular experiment. Control animals were treated with the vehicle alone, i.e with 0.9% NaCl solution instead of the PABTA diester compound.
Statistics. Statistical analysis was carried out using the Student's t-test with Bonferroni corrections and p<0.05 as the level of significance.
Neuronal-specific enolase (NSE) assay. Blood samples were taken from the orbital sinus of gerbils 24 and 72 hours after 10 min period of cerebral ischemia. Blood samples were centrifuged for 5 min at 3000 rpm to obtain serum (the supernatant fraction). NSE activity in the serum was determined by radioimmunoassay using NSE kit (Pharmatope Ltd.,Israel).
The enzymatic activity of neuronal-specific enolase (NSE ) in the serum was used for evaluating the efficacy of the tested BAPTA-diesters in preventing neuronal damage. […] Thus, NSE may serve as a quantitative marker for the degree of neuronal damage.

Mongolian gerbils [6] = assay: Global forebrain ischemia, animal survival; format: in vivo; settings: 10 μg/kg i.p. single dose at onset of reperfusion; 20 min ischemia
Experimental: as §4, §5

[7] = Water/octanol distribution of Zn++ ions; format: physicochemical; settings: 15 ml octanol / 15 ml saline pH 6.5; ZnCl2 10^−4 M/L
Experimental: as §1, §2, §3

[8] = test system: cultured hippocampal neurons; settings: 0.1, 1.0 or 10.0 μg/ml perfused 5 minutes; 40 millisecond K+ pulses
[9] = Water/octanol distribution of Fe++ ions; format: physicochemical; settings: 15 ml octanol / 15 ml saline pH 6.5; FeCl2 2×10^−3 M/L
Experimental: as §1, §2, §3

Wistar rats = assay: Pilocarpine-induced epilepsy; settings: i.p. one hour before pilocarpine 400 mg/kg
Na/K-ATPase = Na/K-ATPase activity in mouse brain cortex homogenate; format: biochemical; settings: 10^−7 to 10^2 μg/ml; mouse cerebral cortex homogenate
Experimental: Thus, the effects of BAPTA-diesters on Na/K-ATPase activity were examined in mouse brain homogenates treated with different concentrations of diethyl-BAPTA (DP-BAPTA 27, disodium salt). The BAPTA-diester tested concentrations ranged from 10^−7 to 10^2 μg/ml.
Preparation of mouse brain homoganate. Male CD-1 mice (10 to 21 days of age) were sacrificed by rapid decapitation. The skull was opened, the brains removed and cut into two. The cortex was isolated, put into sodium Ringer's buffer, washed three times with ice cold PBS and kept on ice. The brain tissue was homogenized using a Polytron at 14000 rpm for 4×30 seconds, on ice. The homogenization buffer contained: 250 mM Sucrose; 1 mM EGTA; 20 mM HEPES-Tris, pH 7.4, and the protease inhibitor PMSF.
The homogenate was span down in a Sorval refrigerated centrifuge at 27000 g for 30 minutes. The membrane fraction was collected and re-suspended in the homogenization buffer. […]
Na/K-ATPase assay. Na/K ATPase was measured as described before (Norby J, G. Coupled (1988) Assay of the Na^+—K^+ ATPase Activity. Methods in Enzymology. 156: 116-119) in the absence and presence of the Na/K-ATPase inhibitor, ouabain (3 mM). The Protein content was determined using the Bio Rad-Bradford assay as previously described (Bradford, M. (1978) Protein assay. Ann. Biochem. 72: 248-257.).

In the case of `O=C(O)CN(CC(=O)O)c1ccccc1OCCOc1ccccc1N(CC(=O)O)CC(=O)O` [BAPTA, 1,2-bis(2 aminophenoxy)ethane-N,N,N′,N′-tetraacetic acid, reference compound], the “effect on intracellular calcium levels (Fluo-3 fluorescence)” value [1] is reported as “only insignificant increase in intracellular Ca^2+”, the “drug concentration at which transfer of Ca++ ions from water to octanol is evident” value [2] is reported as “does not” and the “LogPc, octanol-saline partition coefficient, M = Ca++” value (from here on “LogPc … M = Ca++”) [3] is reported as −1.71^d). For the same molecule, the “LogPc, octanol-saline partition coefficient, M = Na+” value (shortened to “LogPc … M = Na+”) [3] was −3.3^c).
For `CCCCCCCCOC(=O)CN(CC(=O)O)c1ccccc1OCCOc1ccccc1N(CC(=O)O)CC(=O)OCCCCCCCC` [DP-BAPTA-60, Octyl diester of BAPTA], the “ischemia-induced neuronal damage in CA-2, CA-3 and dentate gyrus regions of the hippocampus” value (Mongolian gerbils [4]) was “effective in decreasing the ischemia-induced neuronal damage in the same regions, albeit to a lesser extent than DP-BAPTA 99”, the “neuroprotective activity, sodium salt compared with calcium salt” value (Mongolian gerbils [5]) was “equally effective” and the “neuronal damage (serum NSE activity 24 hours after ischemia)” value (Mongolian gerbils [5]) was “prevented neuronal damage”. For the same molecule, the “extension of survival time” value (Mongolian gerbils [6]) was 2 fold, the “LogPc … M = Ca++” value [3] was 0.79 and the “LogPc … M = Na+” value [3] was 0.85.
With `CCCCCCCCOCCOC(=O)CN(CC(=O)O)c1ccccc1OCCOc1ccccc1N(CC(=O)O)CC(=O)OCCOCCCCCCCC` [DP-BAPTA-99, BAPTA diester of octylethylene glycol] the “drug concentration at which transfer of Zn++ ions from water to octanol is evident” value [7] was 10 µM, the “ischemia-induced neuronal damage in CA-2, CA-3 and dentate gyrus regions of the hippocampus” value (Mongolian gerbils [4]) was “significant neuroprotective effect” and the “neuroprotective activity, sodium salt compared with calcium salt” value (Mongolian gerbils [5]) was “much pronounced neuroprotective activity comparing to the calcium salt”. The “serum NSE activity 24 h and 72 h after global cerebral ischemia” value (Mongolian gerbils [5]; oral, 0.5 mg/kg 4 hours before and at onset of reperfusion, or 0.5 mg/kg daily for 3 days after ischemia) was “significant reduction in NSE activity”, the “neuronal damage (serum NSE activity 24 hours after ischemia)” value (Mongolian gerbils [5]) was “prevented neuronal damage” and the “effect on potassium-induced increase in intracellular calcium ion concentration” value [8] was “attenuates potassium-induced increase in intracellular calcium ion concentration”. The “drug concentration at which transfer of Fe++ ions from water to octanol is evident” value [9] was 250 to 500 µM, the “extension of survival time” value (Mongolian gerbils [6]) was 3 fold and the “drug concentration at which transfer of Ca++ ions from water to octanol is evident” value [2] was 250 to 500 µM. For the same molecule, the “effect on generalized seizures” value (Wistar rats) was “capable of preventing generalized seizures”, the “effect on limbic seizures” value (Wistar rats) was “no effect” and the “effect on mortality during the 3 hour period of status epilepticus” value (Wistar rats) was “reduces mortality”. The “prevention of status epilepticus” value (Wistar rats) was “about half of the population”, the “LogPc … M = Ca++” value [3] was 1.10 and the “lipophilicity relative to the sodium salt of the parent molecule BAPTA” value ([3]; octanol versus aqueous phase) was 10,000 fold. For the same molecule, the “LogPc … M = Na+” value [3] was 0.80.
For `CCOC(=O)CN(CC(=O)O)c1ccccc1OCCOc1ccccc1N(CC(=O)O)CC(=O)OCC` [DP-BAPTA 27, diethyl-BAPTA], the “effect on Na/K-ATPase activity” value (Na/K-ATPase) was “dose dependent increase in Na/K-ATPase activity”.
